These results are taken from ChEMBL document CHEMBL1144959, “Nonpeptide RGD antagonists: a novel class of mimetics, the 5,8-disubstituted 1-azabicyclo[5.2.0]nonan-2-one lactam” (Bioorg Med Chem Lett, 2003).

In the assay the target is Integrin alpha-5/beta-1 (Homo sapiens, UniProt P05556+P08648). The assay is described as follows: Inhibition of fibronectin (GST-3Fn8-11) binding to recombinant soluble mini integrin alpha5-beta1. It counts as protein-complex assay.
Chain of Integrin alpha-5/beta-1 (P05556 21-798 limits assumed): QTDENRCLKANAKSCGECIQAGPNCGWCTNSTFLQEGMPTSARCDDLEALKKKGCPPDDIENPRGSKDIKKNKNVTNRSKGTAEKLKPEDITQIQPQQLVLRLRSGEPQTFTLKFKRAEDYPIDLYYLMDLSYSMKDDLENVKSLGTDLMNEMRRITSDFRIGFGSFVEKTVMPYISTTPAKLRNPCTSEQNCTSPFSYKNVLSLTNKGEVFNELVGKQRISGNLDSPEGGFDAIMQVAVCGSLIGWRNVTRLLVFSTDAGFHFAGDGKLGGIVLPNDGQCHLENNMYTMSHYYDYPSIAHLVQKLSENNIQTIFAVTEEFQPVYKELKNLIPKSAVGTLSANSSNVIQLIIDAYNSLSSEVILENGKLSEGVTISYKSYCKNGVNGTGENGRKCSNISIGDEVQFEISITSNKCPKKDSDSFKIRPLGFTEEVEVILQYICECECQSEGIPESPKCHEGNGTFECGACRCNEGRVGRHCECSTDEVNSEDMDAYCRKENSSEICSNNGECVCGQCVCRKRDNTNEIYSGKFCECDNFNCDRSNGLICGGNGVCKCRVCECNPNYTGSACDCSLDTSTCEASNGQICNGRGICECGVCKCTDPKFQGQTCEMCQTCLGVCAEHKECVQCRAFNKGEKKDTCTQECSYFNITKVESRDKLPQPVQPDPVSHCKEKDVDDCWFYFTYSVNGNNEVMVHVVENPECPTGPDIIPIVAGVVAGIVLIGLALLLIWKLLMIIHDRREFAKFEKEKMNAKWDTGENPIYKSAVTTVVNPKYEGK
Chain of Integrin alpha-5/beta-1 (P08648 42-894 limits assumed): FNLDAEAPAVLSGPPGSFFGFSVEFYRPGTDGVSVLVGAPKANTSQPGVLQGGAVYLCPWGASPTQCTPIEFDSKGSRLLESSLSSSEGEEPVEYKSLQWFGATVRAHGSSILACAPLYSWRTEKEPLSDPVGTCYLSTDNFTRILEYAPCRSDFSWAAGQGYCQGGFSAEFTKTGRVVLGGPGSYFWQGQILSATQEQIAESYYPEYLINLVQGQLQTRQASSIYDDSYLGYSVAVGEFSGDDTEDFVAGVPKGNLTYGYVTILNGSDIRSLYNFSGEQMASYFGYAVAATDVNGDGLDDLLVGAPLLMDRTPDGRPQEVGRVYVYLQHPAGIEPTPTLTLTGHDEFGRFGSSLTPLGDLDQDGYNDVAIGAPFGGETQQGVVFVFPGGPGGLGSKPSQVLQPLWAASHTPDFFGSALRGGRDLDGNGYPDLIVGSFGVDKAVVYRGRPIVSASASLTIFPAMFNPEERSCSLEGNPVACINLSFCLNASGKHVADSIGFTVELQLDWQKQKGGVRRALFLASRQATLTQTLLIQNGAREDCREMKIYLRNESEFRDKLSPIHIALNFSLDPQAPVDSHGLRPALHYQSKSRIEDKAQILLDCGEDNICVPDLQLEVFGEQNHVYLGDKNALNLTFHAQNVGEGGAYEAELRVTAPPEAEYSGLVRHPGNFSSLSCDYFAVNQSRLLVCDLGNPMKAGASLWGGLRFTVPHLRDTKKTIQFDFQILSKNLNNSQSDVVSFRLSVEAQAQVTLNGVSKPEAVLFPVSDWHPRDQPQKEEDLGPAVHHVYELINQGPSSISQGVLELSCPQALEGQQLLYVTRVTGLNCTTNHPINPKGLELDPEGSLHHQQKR
Chain of Integrin alpha-5/beta-1 (P08648 895-1049 limits assumed): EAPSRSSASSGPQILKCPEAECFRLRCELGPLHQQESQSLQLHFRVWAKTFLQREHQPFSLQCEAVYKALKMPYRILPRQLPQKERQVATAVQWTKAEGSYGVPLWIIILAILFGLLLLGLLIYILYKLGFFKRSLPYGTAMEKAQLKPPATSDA

Take `N=C(N)NCCCNC(=O)[C@@H]1CCC(=O)N2C[C@H](CCC(=O)O)[C@H]2C1`: the IC50 was 3100 µM. As for `NC(N)=NCCC[C@H](N)C(=O)NCC(=O)N[C@@H](CC(=O)O)C(=O)N[C@@H](CO)C(=O)O`, the IC50 is 2.2 µM. On to `N=C(N)NCCCNC(=O)[C@H]1CCC(=O)N2C[C@H](CCC(=O)O)[C@H]2C1`, for which the IC50 stood at 65 µM. `N=C(N)NCCCNC(=O)C1CCC(=O)N2CC(CCC(=O)O)C2C1` (centres undefined): the IC50 came out at 1300 µM.

In general, IC50 refers to the point on the concentration scale where inhibition reaches its midpoint.
